Article doi:10.1101/2023.03.24.534094v2 (biorxiv, 2023)
Read-outs that look alike come from different tables or passages of the source. Blank lines part the entries; values can stand above or below the compound they belong to.

What was measured:
Experiment in all cases: biochemical
FGFR1 = FGFR1 (Homo sapiens, UniProt P11362)
Erk2 = Erk2 (Homo sapiens, UniProt P28482)
VRK1 = biological target: T1, VRK1 (Homo sapiens, UniProt Q99986)
T1 sequence (Q99986 1-396): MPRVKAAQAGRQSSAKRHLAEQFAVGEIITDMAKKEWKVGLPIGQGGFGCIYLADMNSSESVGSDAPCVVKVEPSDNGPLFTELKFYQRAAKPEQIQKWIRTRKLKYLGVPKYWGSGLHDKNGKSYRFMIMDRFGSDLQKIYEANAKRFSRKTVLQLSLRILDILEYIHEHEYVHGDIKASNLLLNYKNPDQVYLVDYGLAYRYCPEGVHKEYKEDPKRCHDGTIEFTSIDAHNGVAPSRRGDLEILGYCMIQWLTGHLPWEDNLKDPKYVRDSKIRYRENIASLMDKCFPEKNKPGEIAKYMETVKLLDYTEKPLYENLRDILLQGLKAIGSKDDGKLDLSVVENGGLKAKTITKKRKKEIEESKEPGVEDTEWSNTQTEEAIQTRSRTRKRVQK

DAPK3 = DAPK3 (Homo sapiens, UniProt O43293)
NQO2A = biological target: T2, NQO2A (Homo sapiens, UniProt P16083)
T2 sequence (P16083 1-231): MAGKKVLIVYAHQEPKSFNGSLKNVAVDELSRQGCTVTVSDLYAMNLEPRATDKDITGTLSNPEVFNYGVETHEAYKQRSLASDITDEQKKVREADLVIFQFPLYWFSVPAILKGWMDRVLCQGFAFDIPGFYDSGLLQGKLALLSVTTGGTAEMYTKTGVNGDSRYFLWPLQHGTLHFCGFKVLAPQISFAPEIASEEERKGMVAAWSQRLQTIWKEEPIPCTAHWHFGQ

RSK1b = RSK1b (Homo sapiens, UniProt Q15418)
MAP2K7 = biological target: T3, MAP2K7 (Homo sapiens, UniProt O14733)
T3 sequence (O14733 1-419): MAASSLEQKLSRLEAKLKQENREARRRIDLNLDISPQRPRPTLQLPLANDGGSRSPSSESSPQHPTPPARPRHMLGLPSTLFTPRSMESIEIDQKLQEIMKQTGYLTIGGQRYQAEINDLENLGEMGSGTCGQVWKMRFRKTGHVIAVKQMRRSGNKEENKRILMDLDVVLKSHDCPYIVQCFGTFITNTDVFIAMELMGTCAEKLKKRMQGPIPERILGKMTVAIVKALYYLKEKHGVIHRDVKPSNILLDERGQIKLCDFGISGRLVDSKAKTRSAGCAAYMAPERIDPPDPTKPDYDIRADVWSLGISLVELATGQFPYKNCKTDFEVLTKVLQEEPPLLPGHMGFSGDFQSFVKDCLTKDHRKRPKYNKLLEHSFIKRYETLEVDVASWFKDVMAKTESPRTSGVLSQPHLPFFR

OSR1 = OSR1 (Homo sapiens, UniProt O95747)
FLT1 = FLT1 (Homo sapiens, UniProt P17948)
TTK = biological target: T4, TTK (Homo sapiens, UniProt P33981)
T4 sequence (P33981 1-857): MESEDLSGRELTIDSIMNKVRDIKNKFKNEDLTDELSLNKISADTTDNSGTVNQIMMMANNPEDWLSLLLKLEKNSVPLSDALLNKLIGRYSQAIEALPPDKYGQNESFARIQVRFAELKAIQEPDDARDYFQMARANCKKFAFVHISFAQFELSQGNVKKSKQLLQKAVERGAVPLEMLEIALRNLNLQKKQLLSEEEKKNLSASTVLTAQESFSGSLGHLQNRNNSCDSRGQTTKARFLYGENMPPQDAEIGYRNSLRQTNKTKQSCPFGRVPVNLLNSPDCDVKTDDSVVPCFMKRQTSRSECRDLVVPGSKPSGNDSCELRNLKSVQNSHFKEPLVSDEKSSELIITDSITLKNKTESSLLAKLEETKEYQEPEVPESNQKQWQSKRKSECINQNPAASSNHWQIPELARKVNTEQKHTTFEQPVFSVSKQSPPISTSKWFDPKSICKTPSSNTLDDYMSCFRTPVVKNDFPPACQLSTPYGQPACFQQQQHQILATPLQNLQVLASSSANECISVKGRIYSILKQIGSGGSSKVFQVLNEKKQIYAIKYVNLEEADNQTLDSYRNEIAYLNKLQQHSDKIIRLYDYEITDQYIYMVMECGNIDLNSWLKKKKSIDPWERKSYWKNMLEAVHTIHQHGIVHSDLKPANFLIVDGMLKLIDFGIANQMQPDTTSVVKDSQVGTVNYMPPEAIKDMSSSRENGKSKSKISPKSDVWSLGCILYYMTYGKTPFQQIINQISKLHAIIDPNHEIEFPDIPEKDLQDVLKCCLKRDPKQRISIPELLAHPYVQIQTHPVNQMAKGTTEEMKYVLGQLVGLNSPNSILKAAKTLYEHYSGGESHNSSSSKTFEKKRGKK

Chain of RSK1b (Q15418 whole entry): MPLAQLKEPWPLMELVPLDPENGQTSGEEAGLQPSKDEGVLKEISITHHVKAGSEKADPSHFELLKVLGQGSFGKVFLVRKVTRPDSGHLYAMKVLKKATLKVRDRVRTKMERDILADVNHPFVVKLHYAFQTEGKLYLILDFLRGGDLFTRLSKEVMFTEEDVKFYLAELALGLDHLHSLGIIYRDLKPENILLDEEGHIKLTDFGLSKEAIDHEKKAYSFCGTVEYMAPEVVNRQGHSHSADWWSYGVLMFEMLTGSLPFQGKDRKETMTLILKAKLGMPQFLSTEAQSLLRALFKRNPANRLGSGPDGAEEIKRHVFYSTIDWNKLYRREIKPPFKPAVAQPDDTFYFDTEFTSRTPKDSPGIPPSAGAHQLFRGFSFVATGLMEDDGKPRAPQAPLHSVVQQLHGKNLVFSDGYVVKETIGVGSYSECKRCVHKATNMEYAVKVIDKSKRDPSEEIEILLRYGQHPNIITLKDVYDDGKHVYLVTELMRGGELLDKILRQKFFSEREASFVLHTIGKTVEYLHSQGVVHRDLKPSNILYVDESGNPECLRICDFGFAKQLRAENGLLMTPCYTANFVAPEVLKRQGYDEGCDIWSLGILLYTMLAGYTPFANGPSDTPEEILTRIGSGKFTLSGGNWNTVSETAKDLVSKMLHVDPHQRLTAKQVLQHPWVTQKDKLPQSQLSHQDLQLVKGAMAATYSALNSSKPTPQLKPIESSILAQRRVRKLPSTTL
Chain of FLT1 (P17948 whole entry): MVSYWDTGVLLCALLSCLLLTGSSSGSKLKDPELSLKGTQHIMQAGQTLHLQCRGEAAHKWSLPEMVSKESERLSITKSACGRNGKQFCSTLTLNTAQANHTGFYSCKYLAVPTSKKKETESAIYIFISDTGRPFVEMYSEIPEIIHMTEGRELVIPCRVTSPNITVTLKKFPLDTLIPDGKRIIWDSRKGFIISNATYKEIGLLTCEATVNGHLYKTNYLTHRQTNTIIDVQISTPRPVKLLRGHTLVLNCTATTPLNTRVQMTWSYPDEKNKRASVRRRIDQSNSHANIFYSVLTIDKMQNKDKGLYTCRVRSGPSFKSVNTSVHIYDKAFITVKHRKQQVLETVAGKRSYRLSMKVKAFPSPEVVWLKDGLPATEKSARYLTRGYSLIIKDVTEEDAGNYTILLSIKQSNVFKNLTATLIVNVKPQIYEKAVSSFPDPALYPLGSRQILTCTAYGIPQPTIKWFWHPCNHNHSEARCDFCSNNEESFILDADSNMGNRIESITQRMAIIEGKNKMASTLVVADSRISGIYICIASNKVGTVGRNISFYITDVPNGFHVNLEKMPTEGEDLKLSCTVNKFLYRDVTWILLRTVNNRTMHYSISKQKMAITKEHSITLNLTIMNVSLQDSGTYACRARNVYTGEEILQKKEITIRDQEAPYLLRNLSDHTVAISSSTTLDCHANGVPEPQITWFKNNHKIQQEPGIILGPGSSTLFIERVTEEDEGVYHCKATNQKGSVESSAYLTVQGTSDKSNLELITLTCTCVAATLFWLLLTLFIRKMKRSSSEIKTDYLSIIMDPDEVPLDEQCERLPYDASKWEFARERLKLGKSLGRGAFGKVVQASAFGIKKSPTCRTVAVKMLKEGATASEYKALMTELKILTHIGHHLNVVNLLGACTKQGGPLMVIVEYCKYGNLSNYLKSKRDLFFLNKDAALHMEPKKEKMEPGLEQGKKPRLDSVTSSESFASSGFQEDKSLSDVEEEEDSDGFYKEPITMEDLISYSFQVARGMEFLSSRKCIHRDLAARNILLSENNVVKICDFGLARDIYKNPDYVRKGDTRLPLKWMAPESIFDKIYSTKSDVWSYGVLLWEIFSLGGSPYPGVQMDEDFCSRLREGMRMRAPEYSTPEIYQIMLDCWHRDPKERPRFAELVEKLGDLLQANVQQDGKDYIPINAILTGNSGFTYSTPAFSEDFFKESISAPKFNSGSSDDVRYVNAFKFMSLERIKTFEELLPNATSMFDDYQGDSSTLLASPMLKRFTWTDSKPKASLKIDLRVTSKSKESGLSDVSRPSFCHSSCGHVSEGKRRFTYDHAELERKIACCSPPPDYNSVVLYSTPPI
Chain of DAPK3 (O43293 whole entry): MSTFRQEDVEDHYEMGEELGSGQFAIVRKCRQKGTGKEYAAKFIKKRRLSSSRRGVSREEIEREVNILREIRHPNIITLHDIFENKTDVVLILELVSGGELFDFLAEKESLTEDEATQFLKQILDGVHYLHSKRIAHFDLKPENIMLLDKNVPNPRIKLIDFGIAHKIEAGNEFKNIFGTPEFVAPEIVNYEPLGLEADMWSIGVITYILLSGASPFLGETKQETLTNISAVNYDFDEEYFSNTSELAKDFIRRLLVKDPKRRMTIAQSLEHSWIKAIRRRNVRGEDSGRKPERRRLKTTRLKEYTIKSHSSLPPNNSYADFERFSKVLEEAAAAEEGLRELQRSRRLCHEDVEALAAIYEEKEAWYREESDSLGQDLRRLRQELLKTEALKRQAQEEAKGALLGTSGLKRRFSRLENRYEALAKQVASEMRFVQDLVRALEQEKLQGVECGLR
Chain of FGFR1 (P11362 whole entry): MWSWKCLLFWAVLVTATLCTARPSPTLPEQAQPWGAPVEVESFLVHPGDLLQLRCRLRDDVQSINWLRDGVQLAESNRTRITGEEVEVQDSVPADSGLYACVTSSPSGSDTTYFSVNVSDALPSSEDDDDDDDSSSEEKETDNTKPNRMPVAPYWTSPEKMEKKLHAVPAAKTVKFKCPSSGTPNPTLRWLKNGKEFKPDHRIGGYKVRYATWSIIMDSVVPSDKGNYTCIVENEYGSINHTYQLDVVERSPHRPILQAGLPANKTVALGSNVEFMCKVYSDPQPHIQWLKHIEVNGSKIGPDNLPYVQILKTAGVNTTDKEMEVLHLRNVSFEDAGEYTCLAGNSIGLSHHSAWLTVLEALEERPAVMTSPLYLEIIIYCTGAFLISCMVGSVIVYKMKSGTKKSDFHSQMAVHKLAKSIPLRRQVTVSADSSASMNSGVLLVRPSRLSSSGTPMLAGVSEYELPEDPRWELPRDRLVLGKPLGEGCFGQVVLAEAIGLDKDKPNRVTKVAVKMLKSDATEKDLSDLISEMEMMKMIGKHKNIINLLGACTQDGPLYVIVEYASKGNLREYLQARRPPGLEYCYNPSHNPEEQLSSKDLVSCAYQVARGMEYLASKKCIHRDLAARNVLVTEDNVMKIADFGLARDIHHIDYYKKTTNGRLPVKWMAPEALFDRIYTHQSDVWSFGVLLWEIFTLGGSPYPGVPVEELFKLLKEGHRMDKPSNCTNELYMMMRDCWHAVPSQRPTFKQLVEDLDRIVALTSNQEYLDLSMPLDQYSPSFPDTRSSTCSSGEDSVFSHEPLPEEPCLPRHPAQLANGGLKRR
Chain of Erk2 (P28482 whole entry): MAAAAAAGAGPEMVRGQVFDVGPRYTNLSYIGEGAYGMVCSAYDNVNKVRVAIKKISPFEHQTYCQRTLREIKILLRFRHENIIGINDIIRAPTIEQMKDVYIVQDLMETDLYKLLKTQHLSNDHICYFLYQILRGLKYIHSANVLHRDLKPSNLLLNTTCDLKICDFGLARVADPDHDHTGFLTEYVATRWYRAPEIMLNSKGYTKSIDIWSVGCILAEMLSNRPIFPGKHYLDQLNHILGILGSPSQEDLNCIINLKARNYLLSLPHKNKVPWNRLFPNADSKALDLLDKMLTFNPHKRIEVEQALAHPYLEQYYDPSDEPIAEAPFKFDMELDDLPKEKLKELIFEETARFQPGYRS
Chain of OSR1 (O95747 whole entry): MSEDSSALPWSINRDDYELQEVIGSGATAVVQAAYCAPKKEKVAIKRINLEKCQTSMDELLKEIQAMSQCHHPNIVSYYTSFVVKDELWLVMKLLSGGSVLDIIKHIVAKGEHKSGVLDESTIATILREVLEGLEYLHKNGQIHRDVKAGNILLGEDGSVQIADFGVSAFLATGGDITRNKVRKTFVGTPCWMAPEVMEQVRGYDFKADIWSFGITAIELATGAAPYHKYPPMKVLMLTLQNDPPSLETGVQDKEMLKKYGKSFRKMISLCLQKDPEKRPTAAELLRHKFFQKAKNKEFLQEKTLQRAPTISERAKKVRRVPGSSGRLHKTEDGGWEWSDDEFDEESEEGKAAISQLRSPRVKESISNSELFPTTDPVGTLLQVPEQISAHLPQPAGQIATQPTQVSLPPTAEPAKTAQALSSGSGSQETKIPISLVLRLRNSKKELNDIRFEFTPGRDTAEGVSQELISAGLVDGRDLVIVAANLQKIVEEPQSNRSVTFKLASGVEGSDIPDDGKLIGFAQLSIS

Compound: CNc1ncc2cc(-c3cc(Br)ccc3Cl)c(=O)n(CCCCN)c2n1 [compound 6, 8-(4-Aminobutyl)-6-(5-bromo-2-chlorophenyl)-2-(methylamino)pyrido[2,3-d]pyrimidin-7(8H)-one]
ΔTm at 10 µM (FGFR1; read-out: dTm 6): 3 °C
ΔTm at 10 µM (Erk2; read-out: dTm 6): 0 °C
ΔTm at 10 µM (VRK1; read-out: dTm 6): 0.3 °C
ΔTm at 10 µM (DAPK3; read-out: dTm 6): -0.2 °C
ΔTm at 10 µM (NQO2A; read-out: dTm 6): 0 °C
ΔTm at 10 µM (RSK1b; read-out: dTm 6): 6.3 °C
ΔTm at 10 µM (MAP2K7; read-out: dTm 6): 0.9 °C
ΔTm at 10 µM (OSR1; read-out: dTm 6): 0.3 °C
ΔTm at 10 µM (FLT1; read-out: dTm 6): 6 °C
ΔTm at 10 µM (TTK; read-out: dTm 6): 0.2 °C

Compound: CNc1ncc2cc(-c3cc(F)ccc3F)c(=O)n(CCCCN)c2n1 [compound 5, 8-(4-Aminobutyl)-6-(2,5-difluorophenyl)-2-(methylamino)pyrido[2,3-d]pyrimidin-7(8H)-one]
ΔTm at 10 µM (FGFR1; read-out: dTm MR22 (5)): 3.4 °C
ΔTm at 10 µM (Erk2; read-out: dTm MR22 (5)): -3.7 °C
ΔTm at 10 µM (VRK1; read-out: dTm MR22 (5)): 0.4 °C
ΔTm at 10 µM (DAPK3; read-out: dTm MR22 (5)): 0.5 °C
ΔTm at 10 µM (NQO2A; read-out: dTm MR22 (5)): -0.2 °C
ΔTm at 10 µM (RSK1b; read-out: dTm MR22 (5)): 5.4 °C
ΔTm at 10 µM (MAP2K7; read-out: dTm MR22 (5)): -0.9 °C
ΔTm at 10 µM (OSR1; read-out: dTm MR22 (5)): -0.8 °C
ΔTm at 10 µM (FLT1; read-out: dTm MR22 (5)): 4.6 °C
ΔTm at 10 µM (TTK; read-out: dTm MR22 (5)): -2.6 °C

Compound: CNc1ncc2cc(-c3ccccc3Cl)c(=O)n(CCCCN)c2n1 [compound 4, 8-(4-Aminobutyl)-6-(2-chlorophenyl)-2-(methylamino)pyrido[2,3-d]pyrimidin-7(8H)-one]
ΔTm at 10 µM (FGFR1; read-out: dTm MR21 (4)): 3.3 °C
ΔTm at 10 µM (Erk2; read-out: dTm MR21 (4)): 1 °C
ΔTm at 10 µM (VRK1; read-out: dTm MR21 (4)): -0.4 °C
ΔTm at 10 µM (NQO2A; read-out: dTm MR21 (4)): -1 °C
ΔTm at 10 µM (RSK1b; read-out: dTm MR21 (4)): 5.8 °C
ΔTm at 10 µM (MAP2K7; read-out: dTm MR21 (4)): 1.1 °C
ΔTm at 10 µM (OSR1; read-out: dTm MR21 (4)): 1.3 °C
ΔTm at 10 µM (FLT1; read-out: dTm MR21 (4)): 5.4 °C
ΔTm at 10 µM (TTK; read-out: dTm MR21 (4)): 0.9 °C

The remaining lines, values ahead:

ΔTm at 10 µM (FGFR1; read-out: dTm 7): 2.9 °C
ΔTm at 10 µM (Erk2; read-out: dTm 7): 0 °C
ΔTm at 10 µM (VRK1; read-out: dTm 7): 0.5 °C
ΔTm at 10 µM (DAPK3; read-out: dTm 7): -0.4 °C
ΔTm at 10 µM (NQO2A; read-out: dTm 7): 0.6 °C
ΔTm at 10 µM (RSK1b; read-out: dTm 7): 5.1 °C
ΔTm at 10 µM (MAP2K7; read-out: dTm 7): 0.1 °C
ΔTm at 10 µM (OSR1; read-out: dTm 7): 0 °C
ΔTm at 10 µM (FLT1; read-out: dTm 7): 5.4 °C
ΔTm at 10 µM (TTK; read-out: dTm 7): -0.2 °C
Compound: CNc1ncc2cc(-c3cc(Br)ccc3Cl)c(=O)n(C[C@H]3OC[C@H](N)CO3)c2n1 [compound 7, 8-(((2r,5r)-5-Amino-1,3-dioxan-2-yl)methyl)-6-(5-bromo-2-chlorophenyl)-2-(methylamino)pyrido[2,3-d]pyrimidin-7(8H)-one]

dTm G-5555 (2) (FGFR1; 10 µM, binder): -0.1 °C
dTm G-5555 (2) (Erk2; 10 µM, binder): 1.4 °C
dTm G-5555 (2) (VRK1; 10 µM, binder): -0.1 °C
dTm G-5555 (2) (DAPK3; 10 µM, binder): 0.5 °C
dTm G-5555 (2) (RSK1b; 10 µM, binder): 0.0 °C
dTm G-5555 (2) (OSR1; 10 µM, binder): 0.2 °C
dTm G-5555 (2) (FLT1; 10 µM, binder): 1.7 °C
dTm G-5555 (2) (TTK; 10 µM, binder): 1.5 °C
Compound: CNc1ncc2cc(-c3ccc(-c4cccc(C)n4)cc3Cl)c(=O)n(CC3OCC(N)CO3)c2n1 (centres unmarked) [compound 2, G-5555]
